Values joined by “and” are separate entries in the source; they are usually repeats but may differ in a detail not shown here. Equal values may be shown once. Read-outs that look alike come from different tables or passages of the source.
How the values were obtained:
BTK [1] = biological target: T1, BTK (Homo sapiens, UniProt Q06187); test: NanoBRET in-cell target engagement, BTK; assay type: binding; parameters: purchased Promega Corporation V2941
Protocol: (§1) In-cell target engagement was performed at Reaction Biology Corporation, using NanoBRET technology. Very briefly, HEK296T cells were transfected and treated in duplicate with JS25 for 1 h of incubation. The compound was diluted 10 times with 3-fold dilution, starting at 1 μM. Curve fits were performed only when the % NanoBret signal at the highest concentration of compounds was less than 55%. The IC50 values were determined using GraphPad Prism 8 ([…]).

BLK = BLK (Homo sapiens, UniProt P51451); test: NanoBRET in-cell target engagement, BLK; assay type: binding; parameters: host or cells: HEK296T (so in the source)
Protocol: as §1

JURKAT cells = test: Cell viability assay (CellTiter-Glo), JURKAT; assay type: cell-based; details: Homo sapiens, 72 h, n = 3
Protocol: (§2) All cell lines were purchased from ATCC, except for DoHH-2 cells that were obtained from DSMZ. Cells were cultivated in complete DMEM supplemented with 10% (vol/vol) FBS (Gibco) and 1% of penicillin/streptomycin (Gibco). The cells were grown in a humidified atmosphere of 5% CO2 at 37°C, with the medium changed every other day.
(§3) Cells were inoculated at a density of 5000 cells/well. Serially diluted compounds (starting at 50 μM) were added 24 h later. The assay was performed in triplicates. After 72 h of incubation, cellular viability was assessed by CellTiter-Glo (Promega) according to the manufacturer’s instructions. The values were normalized with the vehicle (DMSO), and the IC50 was calculated using GraphPad Prism 8.

Raji cells = test: Mice xenograft model of Burkitt’s lymphoma (subcutaneous Raji cells); assay type: in vivo; details: for Metastasis volume, Brain, Average / Metastasis volume, Liver, Average / Metastasis volume, Lung, Average / Metastasis volume, Spinal, Average / Secondary tumour, Average: average of 5 animals, stereological analysis; for Metastasis volume, Brain, single animals / Metastasis volume, Liver, single animals / Metastasis volume, Lung, single animals / Metastasis volume, Spinal, single animals / Secondary tumour, single animals: individual animals #1 to #5 in order
Protocol: (§4) Female adult BALB/c/NSG mice were injected subcutaneously with 1 × 10^6 Raji cells, in a 1:1 solution of Matrigel Matrix (Corning) to create solid tumors. When tumors reached 180 mm^3 on average, mice were randomized into four groups (n = 6/group), and dosing began every 2 days. […] Tumor size and body weight were monitored periodically for 12 days. At the end of the experiment, mice necropsies were performed. Stereological analysis was conducted by the Histopathology Unit at Instituto Gulbenkian de Ciência and by the Comparative Pathology Unit at Instituto de Medicina Molecular João Lobo Antunes. Quantification of metastases and cell necrosis was performed in all groups (n = 5/group). Statistical analysis was conducted using one-way ANOVA. The Dunnet test was used to analyze the statistical significance between the treatment groups and the control.

Raji cells (BL) = test: Cell viability assay (CellTiter-Glo), Raji; assay type: cell-based; details: Homo sapiens, 72 h, n = 3
Protocol: as §2, §3

BTK [2] = biological target: T1, BTK; parameters: purchased Promega Corporation V2941; details: first value of 5.8/28 in Table S3; ref 23 (SI ref 20); read-out: IC50 (potency against BTK), earlier value of JS25; cited from earlier work
[3] = Body weight in the mice xenograft model; assay type: in vivo; details: up to 20 mg/kg i.p. every 2 days
Protocol: as §4

JAK3 = biological target: T2, JAK3 (Homo sapiens, UniProt P52333); test: NanoBRET in-cell target engagement, JAK3; assay type: binding; details: HEK296T cells, 1 h incubation, average of duplicates
T2 construct: host or cells: HEK296T (so in the source)
Protocol: as §1

Chain of BLK (P51451 whole entry): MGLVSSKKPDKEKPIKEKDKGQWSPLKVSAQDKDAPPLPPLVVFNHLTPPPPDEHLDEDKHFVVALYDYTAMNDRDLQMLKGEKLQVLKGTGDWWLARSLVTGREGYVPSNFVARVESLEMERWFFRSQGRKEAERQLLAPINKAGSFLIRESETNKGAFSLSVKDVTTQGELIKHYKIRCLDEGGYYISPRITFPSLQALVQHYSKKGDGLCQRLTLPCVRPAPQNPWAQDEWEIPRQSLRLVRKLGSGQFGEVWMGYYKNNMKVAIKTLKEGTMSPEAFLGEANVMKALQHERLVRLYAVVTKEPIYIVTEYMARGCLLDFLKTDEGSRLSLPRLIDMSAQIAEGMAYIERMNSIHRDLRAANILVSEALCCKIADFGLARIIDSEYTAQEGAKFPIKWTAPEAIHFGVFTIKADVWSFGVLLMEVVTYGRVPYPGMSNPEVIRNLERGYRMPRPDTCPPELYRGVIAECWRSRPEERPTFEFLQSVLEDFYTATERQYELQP
T1 sequence (Q06187 whole entry): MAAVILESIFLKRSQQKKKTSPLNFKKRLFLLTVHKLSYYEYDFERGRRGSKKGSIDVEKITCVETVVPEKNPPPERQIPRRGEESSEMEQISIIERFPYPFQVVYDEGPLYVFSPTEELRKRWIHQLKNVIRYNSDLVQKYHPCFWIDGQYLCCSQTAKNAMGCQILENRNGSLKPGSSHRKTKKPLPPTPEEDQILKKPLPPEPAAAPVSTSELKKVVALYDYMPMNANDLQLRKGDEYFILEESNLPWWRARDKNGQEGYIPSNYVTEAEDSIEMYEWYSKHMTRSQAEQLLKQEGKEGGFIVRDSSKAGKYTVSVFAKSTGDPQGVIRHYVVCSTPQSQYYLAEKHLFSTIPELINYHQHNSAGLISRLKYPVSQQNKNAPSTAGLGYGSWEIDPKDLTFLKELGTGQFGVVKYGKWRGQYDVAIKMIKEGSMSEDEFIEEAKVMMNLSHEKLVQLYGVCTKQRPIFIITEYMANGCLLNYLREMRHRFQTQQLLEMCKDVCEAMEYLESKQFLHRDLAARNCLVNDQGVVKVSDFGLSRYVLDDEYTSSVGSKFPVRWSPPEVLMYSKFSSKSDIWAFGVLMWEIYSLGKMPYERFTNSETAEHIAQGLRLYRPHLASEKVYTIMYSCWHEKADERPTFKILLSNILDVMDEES
T2 sequence (P52333 whole entry): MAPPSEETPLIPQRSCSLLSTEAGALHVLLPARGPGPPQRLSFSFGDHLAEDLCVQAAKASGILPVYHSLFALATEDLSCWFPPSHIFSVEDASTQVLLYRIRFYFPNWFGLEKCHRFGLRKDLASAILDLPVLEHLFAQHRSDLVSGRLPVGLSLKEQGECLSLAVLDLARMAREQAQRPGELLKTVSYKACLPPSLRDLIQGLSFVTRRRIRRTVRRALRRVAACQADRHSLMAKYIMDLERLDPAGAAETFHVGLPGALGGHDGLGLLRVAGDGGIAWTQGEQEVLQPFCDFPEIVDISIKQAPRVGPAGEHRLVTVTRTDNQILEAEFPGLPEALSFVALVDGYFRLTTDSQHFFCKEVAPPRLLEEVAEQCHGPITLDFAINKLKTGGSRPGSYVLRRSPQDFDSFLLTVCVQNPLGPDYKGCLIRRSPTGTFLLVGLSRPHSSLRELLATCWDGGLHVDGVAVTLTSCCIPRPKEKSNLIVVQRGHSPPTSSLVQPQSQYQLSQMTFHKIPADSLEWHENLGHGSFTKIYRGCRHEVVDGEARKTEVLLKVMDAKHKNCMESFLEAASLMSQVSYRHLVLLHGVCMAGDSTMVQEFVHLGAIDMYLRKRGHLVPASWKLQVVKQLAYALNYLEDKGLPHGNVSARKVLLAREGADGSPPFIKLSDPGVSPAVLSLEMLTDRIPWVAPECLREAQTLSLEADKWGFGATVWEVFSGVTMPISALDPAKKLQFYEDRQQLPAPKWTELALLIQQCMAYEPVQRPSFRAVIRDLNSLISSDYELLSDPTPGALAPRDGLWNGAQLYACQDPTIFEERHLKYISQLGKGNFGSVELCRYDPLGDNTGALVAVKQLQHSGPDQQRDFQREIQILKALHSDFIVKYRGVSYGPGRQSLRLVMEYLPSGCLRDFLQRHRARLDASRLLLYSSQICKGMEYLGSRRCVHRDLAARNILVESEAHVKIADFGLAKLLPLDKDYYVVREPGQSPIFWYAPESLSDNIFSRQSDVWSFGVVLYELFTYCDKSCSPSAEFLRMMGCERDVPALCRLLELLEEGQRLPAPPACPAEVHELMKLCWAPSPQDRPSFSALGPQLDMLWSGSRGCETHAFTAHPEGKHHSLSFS

IC50 (BTK [1]; HEK296T cells, 1 h incubation, average of duplicates, read-out: IC50 (M), BTK): 2.85e-08 M | selectivity (kinase/BTK), BTK (BTK [1]; IC50 kinase/IC50 BTK): 1 | IC50 (BTK [1]; NanoBRET value as given in text and Table S3, read-out: IC50, BTK): 2.8e-08 M | selectivity for BTK relative to BLK (BLK): 100 fold | IC50 (BLK; HEK296T cells, 1 h incubation, average of duplicates, read-out: IC50 (M), BLK): 2.6e-06 M | IC50 (BLK; NanoBRET value as given in Table S3, read-out: IC50, BLK): ~3e-06 M | IC50 (JURKAT cells): 38400 ± 70 nM | IC50 (Raji cells (BL)): 2300 nM | IC50 (JAK3): > 3000 nM
SMILES: C=CC(=O)Nc1cc(C)cc(-n2c(=O)ccc3cnc4ccc(-c5ccc(NS(C)(=O)=O)cc5)cc4c32)c1 [JS25]
Metastasis volume, Brain, Average (Raji cells; 10 mg/kg): 1.13 mm³ | Metastasis volume, Liver, Average (Raji cells; 10 mg/kg): 27.34 mm³ | Metastasis volume, Lung, Average (Raji cells; 10 mg/kg): 26.04 mm³ | Metastasis volume, Spinal, Average (Raji cells; 10 mg/kg): 87.31 mm³ | Secondary tumour, Average (Raji cells; 10 mg/kg): 16.88 mm³ | Metastasis volume, Brain, single animals (Raji cells; 10 mg/kg): 0.92 mm³ and 0.98 mm³ and 2.33 mm³ and 0.15 mm³ and 1.27 mm³ | Metastasis volume, Liver, single animals (Raji cells; 10 mg/kg): 0.00 mm³ (2×) and 9.94 mm³ and 83.71 mm³ and 43.05 mm³ | Metastasis volume, Lung, single animals (Raji cells; 10 mg/kg): 0.00 mm³ (4×) and 130.18 mm³ | Metastasis volume, Spinal, single animals (Raji cells; 10 mg/kg): 18.31 mm³ and 109.42 mm³ and 122.01 mm³ and 88.70 mm³ and 98.09 mm³ | Secondary tumour, single animals (Raji cells; 10 mg/kg): 0.00 mm³ (4×) and 84.38 mm³ | reduction in percentage of metastases (Raji cells; 20 mg/kg i.p. every 2 days, n = 5/group): 70% | Metastasis volume, Brain, Average (Raji cells; 20 mg/kg): 0.26 mm³ | Metastasis volume, Liver, Average (Raji cells; 20 mg/kg): 1.34 mm³ | Metastasis volume, Lung, Average (Raji cells; 20 mg/kg): 0.00 mm³ | Metastasis volume, Spinal, Average (Raji cells; 20 mg/kg): 27.10 mm³ | Secondary tumour, Average (Raji cells; 20 mg/kg): 37.98 mm³ | Metastasis volume, Brain, single animals (Raji cells; 20 mg/kg): 0.44 mm³ and 0.03 mm³ and 0.82 mm³ and 0.00 mm³ (2×) | Metastasis volume, Liver, single animals (Raji cells; 20 mg/kg): 0.00 mm³ and 2.00 mm³ and 3.35 mm³ and 0.64 mm³ and 0.70 mm³ | Metastasis volume, Lung, single animals (Raji cells; 20 mg/kg): 0.00 mm³ | Metastasis volume, Spinal, single animals (Raji cells; 20 mg/kg): 36.97 mm³ and 12.59 mm³ and 70.62 mm³ and 14.65 mm³ and 0.69 mm³ | Secondary tumour, single animals (Raji cells; 20 mg/kg): 0.00 mm³ and 91.12 mm³ and 86.92 mm³ and 8.82 mm³ and 3.06 mm³ | reduction in secondary tumor formation (Raji cells; JS25 10 and 20 mg/kg i.p. every 2 days, n = 5/group): 71–88% | reduction in solid (subcutaneous) tumor size (Raji cells; JS25 10 and 20 mg/kg i.p. every 2 days, relative to control): 30–40% | IC50 (BTK [2]): 5.8 nM | body weight fluctuation by the end of the treatment [3]: no weight fluctuations were observed

Reference: PMC9667546, “Selective Inhibition of Bruton’s Tyrosine Kinase by a Designed Covalent Ligand Leads to Potent Therapeutic Efficacy in Blood Cancers Relative to Clinically Used Inhibitors” (ACS Pharmacology & Translational Science, 2022)
